Test system: rat heart tissue
Experiment: GENECALLING differential gene expression analysis after dosing of serotonin modulating agents
Type: in vivo, Sprague Dawley rats
In short: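 Rats dosed with serotonin modulating agents, controls given sterile water or canola oil; tissue taken 24 h after the last dose. Total RNA converted to cDNA and profiled by GENECALLING differential expression analysis; fragments changed more than ±1.5-fold were selected.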

## CC(C)CC(N(C)C)C1(c2ccc(Cl)cc2)CCC1 (stereo not shown) [sibutramine]
CARDIOTOX 70
  Effects on Transcription Level: Novel gene fragment, 467 bp, 94% SI to mouse gelsolin [J04953]: −1.7 fold
CARDIOTOX 71
  Effects on Transcription Level: Novel gene fragment, 535 bp, 90% SI to mouse slow/cardiac troponin C [M29793]: −1.9 fold
CARDIOTOX 72
  Effects on Transcription Level: Novel gene fragment, 445 bp, 85% SI to human skeletal muscle alpha 2 actinin [M86406]: −2.2 fold
CARDIOTOX 73
  Effects on Transcription Level: Novel gene fragment, 246 bp, 89% SI to mouse ponsin-1 [AF078667]: −2.8 fold
CARDIOTOX 74
  Effects on Transcription Level: Novel gene fragment, 126 bp, 77% SI to human DNA sequence from cosmid V311G7, between markers DXS366 and DXS87 on chromosome X [Z69304]: +2.2 fold
CARDIOTOX 75
  Effects on Transcription Level: Novel gene fragment, 370 bp: −1.9 fold
CARDIOTOX 76
  Effects on Transcription Level: Novel gene fragment, 337 bp, 78% SI to novel human protein AHNAK [M80899]: −3.5 fold
CARDIOTOX 77
  Effects on Transcription Level: Novel gene fragment, 100 bp, 93% SI to human KIAA0750 protein [ABO18293]: −8.4 fold
CARDIOTOX 78
  Effects on Transcription Level: Novel gene fragment, 44 bp: −2.9 fold
CARDIOTOX 79
  Effects on Transcription Level: Novel gene fragment, 698 bp, 93% SI to mouse plenty-of-prolines-101 [AF062655]: −2.3 fold
CARDIOTOX 80
  Effects on Transcription Level: Novel gene fragment, 660 bp, 84% SI to mouse membrane protein TMS-2 [AF181685]: −1.9 fold
CARDIOTOX 81
  Effects on Transcription Level: Novel gene fragment, 115 bp: −13.1 fold
CARDIOTOX 82
  Effects on Transcription Level: Novel gene fragment, 294 bp, 95% SI to mouse Ndr1 related protein Ndr2 [AB033921]: −3.3 fold
CARDIOTOX 83
  Effects on Transcription Level: Novel gene fragment, 198 bp: +3.1 fold
CARDIOTOX 84
  Effects on Transcription Level: Novel gene fragment, 730 bp, 86% SI to mouse E800 [Y10968]: −2.1 fold
CARDIOTOX 85
  Effects on Transcription Level: Novel gene fragment, 294 bp, 98% SI to cysteine conjugate beta-lyase [S61960]: −2.1 fold
CARDIOTOX 86, GenBank A1243266
  Effects on Transcription Level: Aconitase: −2.9 fold
CARDIOTOX 87, GenBank M17422
  Effects on Transcription Level: Ribosomal protein L7: +3.7 fold
CARDIOTOX 88, GenBank X51706
  Effects on Transcription Level: Ribosomal protein L9: +8.0 fold
CARDIOTOX 89, GenBank X53504
  Effects on Transcription Level: Ribosomal protein L12: −1.5 fold
CARDIOTOX 90, GenBank V01270
  Effects on Transcription Level: 18S, 5.8S, and 28S ribosomal RNA's: +6 fold
CARDIOTOX 91, GenBank U10357
  Effects on Transcription Level: Pyruvate dehydrogenase kinase 2 (PDK2): −9.5 fold
CARDIOTOX 92, GenBank J03179
  Effects on Transcription Level: D-Binding Protein (DBP): −1.7 fold
CARDIOTOX 93, GenBank L03294
  Effects on Transcription Level: Lipoprotein lipase: −2.5 fold
CARDIOTOX 94, GenBank X02610
  Effects on Transcription Level: Non-neuronal enolase: +3.1 fold
CARDIOTOX 95, GenBank L10669
  Effects on Transcription Level: Glycogen phosphorylase (muscle isozyme): −2.0 fold
CARDIOTOX 96, GenBank X14209
  Effects on Transcription Level: Cytochrome c oxidase subunit IV: +8.0 fold
CARDIOTOX 97, GenBank M17083
  Effects on Transcription Level: Alpha-globin: +7.0 fold
CARDIOTOX 98, GenBank X06701
  Effects on Transcription Level: Beta-globin: +5.0 fold
CARDIOTOX 99, GenBank AF197916
  Effects on Transcription Level: Myoglobin: +7.0 fold
CARDIOTOX 100, GenBank L38717
  Effects on Transcription Level: Titin: +1.5 fold
CARDIOTOX 101, GenBank V01218
  Effects on Transcription Level: Skeletal muscle actin: −3.8 fold
CARDIOTOX 102, GenBank M11851
  Effects on Transcription Level: Myosin light chain 2 (MLC2): +1.9 fold
CARDIOTOX 103, GenBank X15938
  Effects on Transcription Level: Alpha cardiac myosin heavy chain: −3.2 fold
CARDIOTOX 104, GenBank U77354
  Effects on Transcription Level: Troponin I: +1.6 fold
CARDIOTOX 105, GenBank AF001334
  Effects on Transcription Level: Cardiac calsequestrin: −2.5 fold
CARDIOTOX 106, GenBank M16975
  Effects on Transcription Level: Sulfated glycoprotein 2: −1.5 fold
CARDIOTOX 107, GenBank AB000507
  Effects on Transcription Level: Aquaporin 7: +1.6 fold
CARDIOTOX 108, GenBank X97831
  Effects on Transcription Level: Carnitine/acylcarnitine carrier protein: −1.9 fold
CARDIOTOX 109, GenBank U40628
  Effects on Transcription Level: Glu-Pro Dipeptide Repeat: −5.5 fold
CARDIOTOX 110, GenBank X54737
  Effects on Transcription Level: Cystatin beta: +3.1 fold
CARDIOTOX 111
  Effects on Transcription Level: Novel gene fragment, 593 bp, 90% SI to human calcineurin B-like protein [Z08983]: +2.1 fold
CARDIOTOX 112
  Effects on Transcription Level: Novel gene fragment, 179 bp, 88% SI to human titin [X90568]: −2.0 fold
CARDIOTOX 113
  Effects on Transcription Level: Novel gene fragment, 700 bp, 91% SI to mouse periplakin (PPL) [AF116523]: +2.2 fold
CARDIOTOX 114, GenBank J05029
  Effects on Transcription Level: Long chain acyl-CoA dehydrogenase (LCAD): +1.8 fold
CARDIOTOX 115, GenBank M19936
  Effects on Transcription Level: Sulfated glycoprotein 1 (SGP-1): −2.3 fold
CARDIOTOX 116, GenBank M11670
  Effects on Transcription Level: Catalase: +1.8 fold
CARDIOTOX 117, GenBank AF084186
  Effects on Transcription Level: Alpha-fodrin (A2A) (Nonerythroid spectrin alpha subunit): +5.0 fold
CARDIOTOX 118, GenBank M27902
  Effects on Transcription Level: Cardiac specific sodium channel alpha-subunit: −2.9 fold
CARDIOTOX 119, GenBank U40628
  Effects on Transcription Level: Glu-Pro Dipeptide Repeat: +6.0 fold
CARDIOTOX 120
  Effects on Transcription Level: Novel gene fragment, 200 bp, 64% SI to human KIAA0733 protein [AB018316]: −1.5 fold
CARDIOTOX 121, GenBank L42855
  Effects on Transcription Level: RNA polymerase II transcription factor SIII (p18 subunit): +2.0 fold
CARDIOTOX 122, GenBank L01702
  Effects on Transcription Level: Protein-tyrosine phosphalase (LRP): +1.5 fold
CARDIOTOX 123, GenBank U25264
  Effects on Transcription Level: Skeletal muscle selenoprotein W (SelW): −1.5 fold
CARDIOTOX 124, GenBank X15635
  Effects on Transcription Level: Sarcoplasmic reticulum 2+-Ca-ATPase: −2.0 fold
CARDIOTOX 125, GenBank X53377
  Effects on Transcription Level: Ribosomal protein S7: +1.8 fold
CARDIOTOX 126, GenBank X05300
  Effects on Transcription Level: Ribophorin I: +1.6 fold
CARDIOTOX 127, GenBank X15939
  Effects on Transcription Level: Beta cardiac myosin heavy chain: −1.7 fold
CARDIOTOX 128, GenBank L12380
  Effects on Transcription Level: ADP-ribosylation factor 1: −2.0 fold
CARDIOTOX 129, GenBank U04942
  Effects on Transcription Level: Laminin receptor: +4.6 fold
CARDIOTOX 130
  Effects on Transcription Level: Novel gene fragment, 206 bp, 89% SI to human seryl-tRNA synthetase [X91257]: +1.4 fold
CARDIOTOX 131, GenBank X86086
  Effects on Transcription Level: Annexin VI: +1.4 fold
CARDIOTOX 132
  Effects on Transcription Level: Novel gene fragment, 325 bp, 90% SI to mouse N-RAP [U76618]: −1.1 fold
LD10 dose for three days
  Effects on Transcription Level: Novel gene fragment, 61 bp (CARDIOTOX 134): +1.0 fold
  Effects on Transcription Level: Novel gene fragment, 337 bp (CARDIOTOX 133): −1.1 fold
  Effects on Transcription Level: Novel gene fragment, 378 bp, 88% SI to human coatomer protein (COPA) [U24105] (CARDIOTOX 138): −2.3 fold
LD10 dose for three days, GenBank D16479
  Effects on Transcription Level: Long chain 3-ketoacyl-CoA thiolase (CARDIOTOX 136): −2.0 fold
LD10 dose for three days, GenBank D87671
  Effects on Transcription Level: TATA-binding protein interacting protein 120 (TIP120) (CARDIOTOX 135): +1.3 fold
LD10 dose for three days, GenBank D88250
  Effects on Transcription Level: Serine protease (CARDIOTOX 139): +1.3 fold
LD10 dose for three days, GenBank M34043
  Effects on Transcription Level: Thymosin beta-4 (CARDIOTOX 137): +1.5 fold

Reference: US20040005537A1, “Method of identifying toxic agents using differential gene expression” (priority 2000, published 2004)
